Laboratory results taken from paper PMC8412337, “Alpha-single chains of collagen type VI inhibit the fibrogenic effects of triple helical collagen VI in hepatic stellate cells” (PLoS ONE, 2021).

What was measured:
CFSC = assay: Fibrosis-associated gene expression, quantitative real-time PCR; type: cell-based, rat
Method: 30 mg/l CVI, 133 mg/l of the monomeric alpha chains of CVI and/or TGF-β (2 ng/ml) were added after 24 h. […] Reverse transcribed complementary DNA templates were amplified by quantitative real-time polymerase chain reaction (PCR; Roche Diagnostics, Mannheim, Germany) using fluorogenic probes labeled with 6-carboxy-fluorescein and 6-carboxy-tetramethylrhodamin (Sigma- Genosys, Steinheim, Germany) and primer pairs (Invitrogen, Karlsruhe, Germany) specific for fibrosis-associated genes (for sequences see S2 Table). Gene expressions were normalized to glyceraldehyde phosphate dehydrogenase (GAPDH).

[1] = tested on: CVI-induced proliferation of CFSC; assay: Inhibition of CVI-induced proliferation by α3(VI)-derived 30-mer peptides, [3H]-thymidine incorporation; type: cell-based, rat; conditions: serum-starved CFSC; 100-fold molar excess of 30-mer peptide compared to CVI; 24 h; n = 4; p<0.05
Method: (§1) 5x10^3CFSC in 100 μl 10% FBS were seeded into a 96-well flat-bottom tissue culture plate (Nunc, Roskilde, Denmark). After 24 hours, medium was completely removed, and cells were rinsed with 200 μl phosphate-buffered saline and 100 μl standard medium containing only 0.25% FBS were added. Cells were cultured for additional 24 h prior to treatment. Synchronized microcultures in 96-well plates were treated for 2 hours in reduction medium. When appropriate, the reduction medium was supplemented with 40 mg/l of α1(VI), α2(VI) or α3(VI). Then, 30 mg/l CVI or CI as control were added and cells were incubated for 24 h after which [^3H]-thymidine was added for additional 24 h. To assess effects of α3(VI)-derived 30-mer peptides on CVI-induced proliferation of CFSC, the reduction medium was supplemented with a 100-fold molar excess of the respective 30-mer peptides compared to CVI. [^3H]-thymidine incorporation was measured as described before. Cells treated with 150 mmol/l HAc or grown in 10% FBS served as negative and positive controls, respectively. During the last 4 hours of treatment, all cultures received 18.5 kBq [^3H]-thymidine (Amersham, Freiburg, Germany). Cells were fixed with 10% trichloroacetic acid and lysed by 200 mmol/l NaOH. After neutralization with 800 mmol/l HCl, lysates were collected to a glassfibre mat and the de-novo DNA synthesis was assessed by liquid scintillation (LKB Wallac, Bromma, Sweden) and the radioactive decay was counted (for) a minute (cpm).

[2] = tested on: CVI-induced proliferation of HSC; assay: Inhibition of CVI-induced proliferation by alpha single chains, [3H]-thymidine incorporation; type: cell-based, rat; conditions: 40 mg/l single chain, then 30 mg/l CVI; 24 h; primary rHSCs, n = three; Fig 4A legend: CFSC, n = 4
Method: as §1

[3] = tested on: 10% FBS-induced proliferation of HSC; assay: Inhibition of 10% FBS-induced proliferation by alpha single chains, [3H]-thymidine incorporation; type: cell-based, rat; conditions: cells grown in 10% FBS, Fig 4A
Method: as §1

primary rat HSC [4] = assay: FACS analysis of apoptosis (propidium iodide DNA content); type: cell-based; conditions: serum-starved primary rat HSC; text: within 24 hours, Fig 1C legend: 48 h; propidium iodide; three independent experiments
Method: Activated HSC (third passage) were serum starved for 24 h in standard medium without FBS (starving medium), followed by dissociation with 500 μl 0.05% trypsin-EDTA (Biochrom, Berlin, Germany) and neutralization with 30 ml starving medium containing 1 g/l soybean trypsin inhibitor and 1 g/l ovalbumin. Alternatively, cells were scraped carefully with a cell-scraper (Costar, Cambridge, MA, USA) to exclude any potential effect of trypsin. After centrifugation at 800 x g for 10 min, cells were washed twice with 20 ml PBS (w/o Ca^2+, Mg^2+; Biochrom, Berlin, Germany), resuspended in starving medium and plated at a density of 1.5-2x10^6 in 1.7 ml starving medium in 6-well plates (NUNC, Wiesbaden, Germany). Cells were then treated with starving medium, soluble CI or CVI (both at a final concentration of 30 mg/l), or 10% FBS. For quantification of spreading, cells that had attached were counted 12 hours after plating and spreading efficiency was determined as percentage of plated cells in each group. De-novo DNA synthesis and apoptosis were assessed by morphological criteria, Cell death detection ELISA and FACS analysis as described below. […] After blocking the cells 1h with DMEM+1% FBS, the cells were incubated with primary antibodies against a-actin (Sigma-Aldrich, Taufkirchen, Germany, #A2547; dilution 1:200) and GFAP (Sigma-Aldrich, #G9269; dilution 1:20) followed by a washing step with PBS and the incubation with fluorescence-labeled secondary antibodies (Alexa Fluor 546 & Alexa Fluor 488, Molecular Probes, Eugene, USA, #A11030 & #A11034; dilution 1:100). […] Cells were analyzed by fluorescence microscopy (Zeiss, Jena, Germany; Kodak Ektachrome P1600 and a quantitative staining analysis was performed using Image J software (version 1.50i; National Institutes of Health, Bethesda, […], USA).
10^5 of freshly set cells were treated with starving medium, CI, CVI or 10% FBS for 24 or 48 hours as described before. […] Fixed cells were stained with propidium iodide (50 mg/l) in a final volume of 1 ml before being subjected to fluorescence activated cell sorting (FACS) analysis.

primary rat HSCs = assay: [3H]-thymidine incorporation, de-novo DNA synthesis; type: cell-based; conditions: primary rHSCs; CVI at 10 μg/ml; within 24 hours; three independent experiments
primary rat HSC [5] = assay: Cell Death Detection ELISA (oligonucleosomal DNA fragments); type: cell-based; conditions: OD of sample divided by OD of 10% FBS group, three independent experiments
Method: 10^5 cells were seeded in 6-well plates and treated with starving medium or medium plus CI, CVI or 10% FBS. After 24 or 48 h floating and adherent cells were pooled, and lysed with 500 μl of 1% SDS, 10 mM Tris, pH 7.4 (lysis buffer), for 30 min at 4°C. Lysed cells were transferred to 1.5 ml Eppendorf tubes and centrifuged at 13,000 rpm for 20 min, to separate low molecular weight DNA (oligonucleosome-sized fragments derived from apoptotic cells) from high molecular weight DNA (from viable cells). 400 μl of the supernatant containing oligonucleosomes were transferred to another Eppendorf tube and diluted 1:5 with lysis buffer. 100 μl aliquots were used for the Cell Death Detection ELISA, which was performed according to the manufacturer’s instructions (Boehringer Mannheim, Germany). In brief, antibodies against histones were coated onto 96-wells, 100 μl lysate-samples containing oligonucleotides and histones were added and incubated for one hour. After washing, wells were incubated with anti-double strand DNA antibody coupled to peroxidase for one hour. After reaction with peroxidase substrate, absorbance was measured at 405 nm using an ELISA reader. Background values (lysis-buffer alone) were subtracted, and results are shown as enrichment factor [enrichment factor: OD (optical density) of the sample (apoptotic cells) divided by the OD of the corresponding control (viable cells, 10% FBS-group). A defined positive control was prepared using a hypertonic buffer, containing 10 mM Tris, 400 mM NaCl, 5 mM CaCl2 and 10 mM MgCl2, instead of starving medium.

[6] = tested on: Bax and Bcl-2 in activated HSCs; assay: Western-blot analysis of Bax and Bcl-2; type: cell-based, rat; conditions: 24 hours culture after serum starvation; densitometry; three independent experiments
Method: Dislodged cells were centrifuged at 800 x g/10 min and lysed with 100 μl lysis buffer. The protein concentration was determined using NanoOrange® Protein Quantitation Kit (Life Technologies) according to the manufacturer’s instructions. Briefly, protein solutions were mixed with the diluted NanoOrange reagent in 1.5 ml polypropylene tubes and heated at 95°C for 10 min in a thermomixer (Peqlab, Erlangen, Germany). Tubes were centrifuged and 200 μl of each sample were transferred to a black 96 well flat-bottom plate (Greiner BioOne, Frickenhausen, Germany). The emitted fluorescence was assessed at 570 nm in a SpectraMax Gemini EM (Molecular Devices, Biberach an der Riß, Germany). Protein concentrations were calculated from a bovine serum albumin standard curve. Equivalent amounts (10–50 μg) of protein were used in […]. Sample buffer (1:1) was added and the aliquots (20 μl final volume) were boiled for 5 min and subjected to 12% SDS-PAGE. After blocking for 1 h at room temperature in 10 mmol Tris-HCl, pH 7.5, 100 mmol NaCl, containing 0.1% Tween 20 and 3% bovine serum albumine (BSA), nitrocellulose-membranes were incubated either with polyclonal rabbit anti-rat antibodies to Bax (1:1000, sc-493), Bcl-2 (1:1000, sc783, both Santa Cruz, Santa Cruz, USA), α-actin (1:4000, A2547, Sigma) or β-actin (1:10,000, A5441, Sigma). Membranes were then washed in 10 mmol Tris-HCl, 100 mmol NaCl, 0.1% Tween 20, pH 7.5, and incubated with anti-rabbit IgG coupled to peroxidase (1:1000, A4416, Sigma) for 1 h at room temperature or directly developed (RC20H). Bands were detected with the ECL chemiluminescence reagent (Amersham-Pharmacia, Freiburg, Germany). After stripping in 0.1 M glycin-HCl, pH 2, for 20 min at room temperature, membranes were reprobed with appropriate primary and secondary antibodies. Band intensities were analyzed by densitometry and normalized to β-actin.

[7] = CFSC, medium containing 0.2% FBS, S3 Fig, one out of two independent experiments

TGF-β [reference compound] was tested, and the “time after which CI expression increased” value (CFSC; [7]) was ~ 8 h, the “time of maximum CI expression” value (CFSC; [7]) was ~ 24 h and the “reduction of the expression of MMP-3” value (CFSC; serum-starved CFSC, 24 h, TGF-β 2 ng/ml, CVI 30 mg/l, qPCR normalized to GAPDH) was ~ 70%.
With “GIRGRRGNSGPPGIVGQKGRPGYPGPAGPR [C4, α3(VI)-derived synthetic 30-mer peptide]” the “inhibition of CVI-induced proliferation” value [1] was “strong growth inhibitory effects”.
With “PPGLIGEQGISGPRGSGGARGAPGERGRTG [B5, α3(VI)-derived synthetic 30-mer peptide]” the “inhibition of CVI-induced proliferation” value [1] was “no or weaker inhibitory activities”.
“DGYRGYPGDEGGPGERGPPGVNGTQGFQGC [A2, α3(VI)-derived synthetic 30-mer peptide]” was tested, and the “inhibition of CVI-induced proliferation” value [1] was “no or weaker inhibitory activities”.
“VNGTQGFQGCPGQRGVKGSRGFPGEKGEVG [A3, α3(VI)-derived synthetic 30-mer peptide]” was tested, and the “inhibition of CVI-induced proliferation” value [1] was “strong growth inhibitory effects”.
For “DGDKGLPGSSGEKGNPGRRGDKGPRGEKGE [A5, α3(VI)-derived synthetic 30-mer peptide]”, the “inhibition of CVI-induced proliferation” value [1] was “no or weaker inhibitory activities”.
With “α1(VI): monomeric alpha 1 single chain of collagen VI isolated from human placentas” the “inhibition of DNA synthesis in the presence of CVI” value [2] was “did not show any effect”, the “effect on CVI-induced expression of αSMA, CI and TGF-β” value (CFSC; serum-starved CFSC, 30 mg/l CVI plus 133 mg/l monomeric alpha chain, 24 h, n = 4) was “some inhibitory effects” and the “effect on 10% FBS-induced proliferation” value [3] was “had no effect”.
“DKGPRGEKGERGDVGIRGDPGNPGQDSQER [A6, α3(VI)-derived synthetic 30-mer peptide]” was tested, and the “inhibition of CVI-induced proliferation” value [1] was “no or weaker inhibitory activities”.
For “GFPGEKGEVGEIGLDGLDGEDGDKGLPGSS [A4, α3(VI)-derived synthetic 30-mer peptide]”, the “inhibition of CVI-induced proliferation” value [1] was “strong growth inhibitory effects”.
“CI: Human collagen I isolated from placentas by pepsin digestion; served as a control” was tested, and the “percentage of apoptotic cells (FACS)” value (primary rat HSC [4]) was 80%, the “de-novo DNA synthesis ([3H]-thymidine incorporation)” value (primary rat HSCs) was “little DNA incorporation” and the “enrichment factor of oligonucleosomal fragments” value (primary rat HSC [5]; after 24 hours) was 5. For the same substance, the “enrichment factor of oligonucleosomal fragments” value (primary rat HSC [5]; after 48 hours) was 30 and the “Bax to Bcl-2 ratio” value [6] was 7.0.
In the case of “GNPGQDSQERGPKGETGDLGPMGVPGRDGV [B1, α3(VI)-derived synthetic 30-mer peptide]”, the “inhibition of CVI-induced proliferation” value [1] is reported as “strong growth inhibitory effects”.
For “RDGVGSEGRRGKKGERGFPGYPGPKGNPGE [C2, α3(VI)-derived synthetic 30-mer peptide]”, the “inhibition of CVI-induced proliferation” value [1] was “strong growth inhibitory effects”.
With “GAPGERGRTGPLGRKGEPGEPGPKGGIGNP [B6, α3(VI)-derived synthetic 30-mer peptide]” the “inhibition of CVI-induced proliferation” value [1] was “no or weaker inhibitory activities”.
